Data from ChEMBL document CHEMBL3045159, “Computational evaluation and experimental in vitro antibacterial, antifungal and antiviral activity of bis-Schiff bases of isatin and its derivatives” (Med Chem Res, 2013).
Values after ≈ are worked out from the molar mass of the structure shown.

Key:
Staphylococcus aureus = experiment: Antibacterial activity against Staphylococcus aureus CIP 4.83; type: functional
[1] = system: Vesicular stomatitis virus; experiment: Antiviral activity against Vesicular stomatitis virus infected HeLa; type: functional
Coxsackievirus B4 [2] = experiment: Antiviral activity against Human coxsackievirus B4 infected Vero cells; type: functional; conditions: Enterovirus B
Saccharomyces cerevisiae = experiment: Antifungal activity against Saccharomyces cerevisiae ATCC 28383; type: functional
[3] = Cytotoxicity against Homo sapiens (human) HEL cells; type: cell-based
Vaccinia virus = experiment: Antiviral activity against Vaccinia virus infected HEL cells; type: functional; conditions: Orthopoxvirus vaccinia
[4] = system: Vesicular stomatitis virus; experiment: Antiviral activity against Vesicular stomatitis virus infected HEL cells; type: functional
[5] = Cytotoxicity against Chlorocebus aethiops (African green monkey) Vero cells; type: cell-based; conditions: chlorocebus sabaeus
[6] = system: Respiratory syncytial virus; experiment: Antiviral activity against Respiratory syncytial virus infected HeLa cells; type: functional; conditions: human respiratory syncytial virus
Human alphaherpesvirus 1 [7] = experiment: Antiviral activity against Human herpesvirus 1 strain KOS infected in HEL cells; type: functional; conditions: Human alphaherpesvirus 1, KOS
Punta Toro virus = experiment: Antiviral activity against Punta Toro virus infected Vero cells; type: functional
Sindbis virus = experiment: Antiviral activity against Sindbis virus infected Vero cells; type: functional
[8] = Cytotoxicity against Homo sapiens (human) HeLa cells; type: cell-based
[9] = system: Mammalian orthoreovirus 1; experiment: Antiviral activity against Mammalian orthoreovirus 1 infected Vero cells; type: functional
Human alphaherpesvirus 2 = experiment: Antiviral activity against Human herpesvirus 2 strain G infected HEL cells; type: functional; conditions: Human alphaherpesvirus 2, strain G
Human alphaherpesvirus 1 [10] = experiment: Antiviral activity against thymidine kinase-deficient, acylcovir-resistant Human herpesvirus 1 strain KOS infected in HEL cells; type: functional; conditions: Human alphaherpesvirus 1, KOS
Candida albicans = experiment: Antifungal activity against Candida albicans CIP 1180-79; type: functional
Coxsackievirus B4 [11] = experiment: Antiviral activity against Human coxsackievirus B4 infected HeLa cells; type: functional; conditions: Enterovirus B
Escherichia coli = experiment: Antibacterial activity against Escherichia coli CIP 54127; type: functional
Human respirovirus 3 = experiment: Antiviral activity against Human parainfluenza virus 3 infected Vero cells; type: functional

## O=C1Nc2ccccc2/C1=N\c1cccc(Cc2cccc(/N=C3/C(=O)Nc4ccccc43)c2)c1
Staphylococcus aureus
  MIC: < 50 µg/mL
[1]
  MIC: 9.6 µg/mL (≈ 21 µM)
Coxsackievirus B4 [2]
  MIC: > 16 µg/mL
Saccharomyces cerevisiae
  MIC: < 50 µg/mL
[3]
  MCC: 80 µg/mL
Vaccinia virus
  MIC: > 16 µg/mL
[4]
  MIC: > 16 µg/mL
[5]
  MCC: 80 µg/mL
[6]
  MIC: > 16 µg/mL
Human alphaherpesvirus 1 [7]
  MIC: > 16 µg/mL
Punta Toro virus
  MIC: > 16 µg/mL
Sindbis virus
  MIC: > 16 µg/mL
[8]
  MCC: ≥ 16 µg/mL
[9]
  MIC: > 16 µg/mL
Human alphaherpesvirus 2
  MIC: > 16 µg/mL
Human alphaherpesvirus 1 [10]
  MIC: > 16 µg/mL
Candida albicans
  MIC: < 50 µg/mL
Coxsackievirus B4 [11]
  MIC: > 16 µg/mL
Escherichia coli
  MIC: < 50 µg/mL
Human respirovirus 3
  MIC: > 16 µg/mL

## O=C1Nc2ccc(F)cc2/C1=N\c1cccc(Cc2cccc(/N=C3/C(=O)Nc4ccc(F)cc43)c2)c1
Staphylococcus aureus
  MIC: < 50 µg/mL
[1]
  MIC: 9.6 µg/mL (≈ 19.5 µM)
Coxsackievirus B4 [2]
  MIC: > 16 µg/mL
Saccharomyces cerevisiae
  MIC: < 50 µg/mL
[3]
  MCC: 80 µg/mL
Vaccinia virus
  MIC: > 16 µg/mL
[4]
  MIC: > 16 µg/mL
[5]
  MCC: 80 µg/mL
[6]
  MIC: > 16 µg/mL
Human alphaherpesvirus 1 [7]
  MIC: > 16 µg/mL
Punta Toro virus
  MIC: > 16 µg/mL
Sindbis virus
  MIC: > 16 µg/mL
[8]
  MCC: 80 µg/mL
[9]
  MIC: > 16 µg/mL
Human alphaherpesvirus 2
  MIC: > 16 µg/mL
Human alphaherpesvirus 1 [10]
  MIC: > 16 µg/mL
Candida albicans
  MIC: < 50 µg/mL
Coxsackievirus B4 [11]
  MIC: > 16 µg/mL
Escherichia coli
  MIC: < 50 µg/mL
Human respirovirus 3
  MIC: > 16 µg/mL

## O=C1/C(=N/c2cccc(Cc3cccc(/N=C4/C(=O)N(Cc5ccccc5)c5ccccc54)c3)c2)c2ccccc2N1Cc1ccccc1
Staphylococcus aureus
  MIC: < 50 µg/mL
[1]
  MIC: > 40 µg/mL
Coxsackievirus B4 [2]
  MIC: > 40 µg/mL
Saccharomyces cerevisiae
  MIC: < 50 µg/mL
[3]
  MCC: 200 µg/mL
Vaccinia virus
  MIC: > 40 µg/mL
[4]
  MIC: > 40 µg/mL
[5]
  MCC: 200 µg/mL
[6]
  MIC: > 40 µg/mL
Human alphaherpesvirus 1 [7]
  MIC: > 40 µg/mL
Punta Toro virus
  MIC: > 40 µg/mL
Sindbis virus
  MIC: > 40 µg/mL
[8]
  MCC: 200 µg/mL
[9]
  MIC: > 40 µg/mL
Human alphaherpesvirus 2
  MIC: > 40 µg/mL
Human alphaherpesvirus 1 [10]
  MIC: > 40 µg/mL
Candida albicans
  MIC: < 50 µg/mL
Coxsackievirus B4 [11]
  MIC: > 40 µg/mL
Escherichia coli
  MIC: < 50 µg/mL
Human respirovirus 3
  MIC: > 40 µg/mL

## O=C1Nc2ccccc2/C1=N\c1ccc(Cc2cccc(/N=C3/C(=O)Nc4ccccc43)c2)cc1
Staphylococcus aureus
  MIC: < 50 µg/mL
[1]
  MIC: 3.2 µg/mL (≈ 7.01 µM)
Coxsackievirus B4 [2]
  MIC: > 16 µg/mL
Saccharomyces cerevisiae
  MIC: < 50 µg/mL
[3]
  MCC: 80 µg/mL
Vaccinia virus
  MIC: > 16 µg/mL
[4]
  MIC: > 16 µg/mL
[5]
  MCC: 80 µg/mL
[6]
  MIC: > 16 µg/mL
Human alphaherpesvirus 1 [7]
  MIC: > 16 µg/mL
Punta Toro virus
  MIC: > 16 µg/mL
Sindbis virus
  MIC: > 16 µg/mL
[8]
  MCC: ≥ 16 µg/mL
[9]
  MIC: > 16 µg/mL
Human alphaherpesvirus 2
  MIC: > 16 µg/mL
Human alphaherpesvirus 1 [10]
  MIC: > 16 µg/mL
Candida albicans
  MIC: < 50 µg/mL
Coxsackievirus B4 [11]
  MIC: > 16 µg/mL
Escherichia coli
  MIC: < 50 µg/mL
Human respirovirus 3
  MIC: > 16 µg/mL

## O=C1Nc2ccccc2/C1=N\c1ccc(Oc2cccc(/N=C3/C(=O)Nc4ccccc43)c2)cc1
Staphylococcus aureus
  MIC: < 50 µg/mL
[1]
  MIC: > 16 µg/mL
Coxsackievirus B4 [2]
  MIC: > 80 µg/mL
Saccharomyces cerevisiae
  MIC: < 50 µg/mL
[3]
  MCC: 400 µg/mL
Vaccinia virus
  MIC: > 80 µg/mL
[4]
  MIC: > 80 µg/mL
[5]
  MCC: 400 µg/mL
[6]
  MIC: > 16 µg/mL
Human alphaherpesvirus 1 [7]
  MIC: > 80 µg/mL
Punta Toro virus
  MIC: > 80 µg/mL
Sindbis virus
  MIC: > 80 µg/mL
[8]
  MCC: ≥ 16 µg/mL
[9]
  MIC: > 80 µg/mL
Human alphaherpesvirus 2
  MIC: > 80 µg/mL
Human alphaherpesvirus 1 [10]
  MIC: > 80 µg/mL
Candida albicans
  MIC: < 50 µg/mL
Coxsackievirus B4 [11]
  MIC: > 16 µg/mL
Escherichia coli
  MIC: < 50 µg/mL
Human respirovirus 3
  MIC: > 80 µg/mL

## O=C1Nc2ccc(F)cc2/C1=N/c1ccc(Cc2ccc(/N=C3\C(=O)Nc4ccc(F)cc43)cc2)cc1
Staphylococcus aureus
  MIC: < 50 µg/mL
[1]
  MIC: > 16 µg/mL
Coxsackievirus B4 [2]
  MIC: > 16 µg/mL
Saccharomyces cerevisiae
  MIC: < 50 µg/mL
[3]
  MCC: 16 µg/mL
Vaccinia virus
  MIC: > 3.2 µg/mL
[4]
  MIC: > 3.2 µg/mL
[5]
  MCC: ≥ 16 µg/mL
[6]
  MIC: > 16 µg/mL
Human alphaherpesvirus 1 [7]
  MIC: > 3.2 µg/mL
Punta Toro virus
  MIC: > 16 µg/mL
Sindbis virus
  MIC: > 16 µg/mL
[8]
  MCC: 80 µg/mL
[9]
  MIC: > 16 µg/mL
Human alphaherpesvirus 2
  MIC: > 3.2 µg/mL
Human alphaherpesvirus 1 [10]
  MIC: > 3.2 µg/mL
Candida albicans
  MIC: < 50 µg/mL
Coxsackievirus B4 [11]
  MIC: > 16 µg/mL
Escherichia coli
  MIC: < 50 µg/mL
Human respirovirus 3
  MIC: > 16 µg/mL

## CCc1ccc2c(c1)/C(=N/c1c(CC)cc(Cc3cc(CC)c(/N=C4\C(=O)N(CC)c5ccc(CC)cc54)c(CC)c3Cl)c(Cl)c1CC)C(=O)N2CC
Staphylococcus aureus
  MIC: < 50 µg/mL
[1]
  MIC: > 3.2 µg/mL
Coxsackievirus B4 [2]
  MIC: > 3.2 µg/mL
Saccharomyces cerevisiae
  MIC: < 50 µg/mL
[3]
  MCC: 80 µg/mL
Vaccinia virus
  MIC: > 16 µg/mL
[4]
  MIC: > 16 µg/mL
[5]
  MCC: 16 µg/mL
[6]
  MIC: > 3.2 µg/mL
Human alphaherpesvirus 1 [7]
  MIC: > 16 µg/mL
Punta Toro virus
  MIC: > 3.2 µg/mL
Sindbis virus
  MIC: > 3.2 µg/mL
[8]
  MCC: 16 µg/mL
[9]
  MIC: > 3.2 µg/mL
Human alphaherpesvirus 2
  MIC: > 16 µg/mL
Human alphaherpesvirus 1 [10]
  MIC: > 16 µg/mL
Candida albicans
  MIC: < 50 µg/mL
Coxsackievirus B4 [11]
  MIC: > 3.2 µg/mL
Escherichia coli
  MIC: < 50 µg/mL
Human respirovirus 3
  MIC: > 3.2 µg/mL

## O=C1/C(=N\c2ccc(Cc3ccc(/N=C4\C(=O)N(Cc5ccccc5)c5ccccc54)cc3)cc2)c2ccccc2N1Cc1ccccc1
Staphylococcus aureus
  MIC: < 50 µg/mL
[1]
  MIC: > 40 µg/mL
Coxsackievirus B4 [2]
  MIC: > 8 µg/mL
Saccharomyces cerevisiae
  MIC: < 50 µg/mL
[3]
  MCC: 40 µg/mL
Vaccinia virus
  MIC: > 8 µg/mL
[4]
  MIC: > 8 µg/mL
[5]
  MCC: 40 µg/mL
[6]
  MIC: > 40 µg/mL
Human alphaherpesvirus 1 [7]
  MIC: > 8 µg/mL
Punta Toro virus
  MIC: > 8 µg/mL
Sindbis virus
  MIC: > 8 µg/mL
[8]
  MCC: 200 µg/mL
[9]
  MIC: > 8 µg/mL
Human alphaherpesvirus 2
  MIC: > 8 µg/mL
Human alphaherpesvirus 1 [10]
  MIC: > 8 µg/mL
Candida albicans
  MIC: < 50 µg/mL
Coxsackievirus B4 [11]
  MIC: > 40 µg/mL
Escherichia coli
  MIC: < 50 µg/mL
Human respirovirus 3
  MIC: > 8 µg/mL
